The values below come from patent US20140163048A1, “COMPOSITIONS WITH INCREASED STABILITY FOR INHIBITING TRANSIENT RECEPTOR POTENTIAL ION CHANNEL TRPA1” (Cubist Pharmaceuticals, Inc., priority 2012, published 2014).

Data set [1] has as its system serum chemistry biomarkers of hepatotoxicity. The data set is described as follows: Hepatotoxicity serum biomarker study, oral dose. Format: in vivo, dogs. The note with it: for serum biomarkers of hepatotoxicity (ALT, AST, ALP, GGT): dogs, 50 mg/kg PO; for ALT levels elevation: single PO dose of 50 mg/kg. From the text: […] 11A, showing measurements of alanine aminotranferease [ALT], aspartate aminotranferease [AST], alkaline phosphatase [ALP] and gamma-glutamyl transferase [GGT] in the dogs at each dose level (each bar represents a measurement from 1 dog in the study).

The nature of data set [2]: 7-day i.p. repeat dose screening toxicity study. Format: in vivo, rats. The note with it: 50 mg/kg/day i.p. for 7 consecutive days. The protocol:
The compound of Formula (I) was evaluated in a 7-day repeat dose screening toxicity study in female rats. In order to maximize systemic exposure, rats were administered compound of Formula (I) i.p. at 50 mg/kg/day for 7 consecutive days, to obtain the results shown in FIG. 9. Clinical chemistry parameters were evaluated on Days 3 and 8. Histopathology was performed on select organs including the liver, kidney, spleen, and lung.

The subject of data set [3] is TRP channels and voltage-gated ion channels. The data set is described as follows: Selectivity over the panel of eight tested channels. Format: cell-based, human. The note with it: eight channels of Table 2. The protocol: Data for TRPA1 inhibition and the selectivity of TRPA1 inhibition was obtained by this method for the compound of Formula (I) and included in Table 1 and Table 2. All currents were recorded in whole-cell configuration using EPC-9 and EPC-10 amplifiers and Patchmaster software (HEKA). […] The standard pipette solution consisted of 140 mM CsAsp, 10 mM EGTA, 10 mM HEPES, 2.27 mM MgCl2, 1.91 mM CaCl2, 4 mM MgATP, and 0.1-0.3 mM Na2GTP, with pH adjusted to 7.2 with CsOH. In addition, a solution containing 145 mM CsCl, 10 mM HEPES, 10 mM EGTA and 1 mM MgCl2 (pH 7.2 adjusted with csOH) can be used. The standard bath solution contained 150 mM NaCl, 10 mM HEPES, 10 mM glucose, 4.5 mM KCl, 1 mM EGTA, 3 mM MgCl2, with pH adjusted to 7.4 with NaOH. In some instances, 2 mM CaCl2 was added in place of EGTA and the concentration of MgCl2 was reduced to 1 mM.

“Also recorded” adds a separate entry of the source.

As to `C[C@H]1CCCN1c1ncc(-c2cccc(NC(=O)Cn3cnc4c3c(=O)n(C)c(=O)n4C)n2)cn1` [Formula (I)], in data set [1], the “serum biomarkers of hepatotoxicity (ALT, AST, ALP, GGT)” value is on record as “did not elevate serum biomarkers of hepatotoxicity or acute phase response”. The “histopathology of liver, kidney, spleen, lung” value in data set [2] (female rats, days 3 and 8, 50 mg/kg/day) is reported as “No histopathological findings; also recorded: no adverse effects”. Also, in data set [3], the “selectivity for block of TRPA1 over all other tested channels” value is “at least 100 fold”.

With `C[C@H]1CCCN1c1ccc(-c2csc(NC(=O)Cn3cnc4c3c(=O)n(C)c(=O)n4C)n2)cc1F` [Formula (III)], the “serum biomarkers of hepatotoxicity (ALT, AST, ALP, GGT)” value in data set [1] was “did elevate serum biomarkers of hepatotoxicity”. The ALT levels elevation entry is “up to 130 fold” in data set [1] (female beagle dogs) and “up to 60 fold” in data set [1] (male dogs). For the same molecule, the “serum biomarkers of hepatotoxicity” value in data set [2] (rats) is “did elevate serum biomarkers of hepatotoxicity”.
